Patent US10870638B2, “Pyridazinone compound or its salt, and herbicide containing it” (ISHIHARA SANGYO KAISHA, LTD., priority 2016, dated 2020)

How the values were obtained:
Type in all cases: in vivo
Details in all cases: 14th day after application
[1] = tested on: barnyardgrass (Echinochloa crus-qalli L.); assay: Test Example 1: foliar treatment, growth inhibition rate on 14th day
Summary of the method: (§1)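 Visual 0–100% inhibition scoring (100 = complete kill) at 14 days after foliar treatment of soil-grown seedlings at species-specific leaf stages, with the compound sprayed as a wettable powder or emulsifiable concentrate dilution.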

[2] = tested on: crabgrass (Digitaria sanquinalis L.); assay: as above
Summary of the method: as §1

[3] = tested on: green foxtail (Setaria viridis L.); assay: as above
Summary of the method: (§2)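 Inhibition was rated visually 14 days after treatment on a 0–100% scale, where 100 is complete kill. Compounds, formulated as wettable powders or emulsifiable concentrates at set active-ingredient amounts, were diluted to 1,000 L/ha with 0.1 vol% spreader. The dilutions were sprayed post-emergence onto soybean (primary leaf), rice (0.2–2.7 leaf), wild oat (0.4–1.2) and green foxtail (0.5–3.2).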

[4] = tested on: redroot pigweed (Amaranthus retroflexus L.); assay: as above
Summary of the method: as §1

corn (Zea mays L.) [5] = assay: as above
Summary of the method: as §1

[6] = tested on: wild oat (Avena fatua L.); assay: as above
Summary of the method: as §2

[7] = tested on: italian ryegrass (Lolium multiflorum Lam.); assay: as above
Summary of the method: as §1

rice (Oryza sativa L.) [8] = assay: as above
Summary of the method: as §2

[9] = tested on: soybean (Glycine max Merr.); assay: as above
Summary of the method: as §2

[10] = tested on: wheat (Triticum aestivum L.); assay: as above
Summary of the method: as §1

[11] = tested on: barnyardgrass (Echinochloa crus-qalli L.); assay: Test Example 2: soil application on the day after sowing, growth inhibition rate on 14th day
Summary of the method: (§3)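 Growth inhibition (%) judged by eye at day 14, scale 0 = as untreated to 100 = complete kill. Compounds formulated as wettable powders or emulsifiable concentrates, diluted in 1,000 L water per ha and sprayed onto pot soil one day post-sowing at set active-ingredient rates.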

[12] = tested on: green foxtail (Setaria viridis L.); assay: as above
Summary of the method: as §3

[13] = tested on: prickly sida (Sida spinosa L.); assay: as above
Summary of the method: as §3

[14] = tested on: redroot pigweed (Amaranthus retroflexus L.); assay: as above
Summary of the method: as §3

corn (Zea mays L.) [15] = assay: as above
Summary of the method: as §3

rice (Oryza sativa L.) [16] = assay: as above
Summary of the method: as §3

[17] = tested on: soybean (Glycine max Merr.); assay: as above
Summary of the method: as §3

[18] = tested on: crabgrass (Digitaris sanquinalis L.); assay: as above
Summary of the method: as §3

[19] = tested on: velvetleaf (Abutilon theophrasti MEDIC.); assay: as above
Summary of the method: as §3

[20] = tested on: wheat (Triticum aestivum L.); assay: as above
Summary of the method: as §3

[21] = active ingredient amount 31 g/ha
[22] = active ingredient amount 500 g/ha

Row | SMILES | Growth inhibition rate (%) Barnyardgrass [1, 21] | Growth inhibition rate (%) Crabgrass [2, 21] | Growth inhibition rate (%) Green foxtail [3, 21] | Growth inhibition rate (%) Redroot pigweed [4, 21] | Growth inhibition rate (%) Corn (corn (Zea mays L.) [5]; [21]) | Growth inhibition rate (%) Wild oat [6, 21] | Growth inhibition rate (%) Italian ryegrass [7, 21] | Growth inhibition rate (%) Rice (rice (Oryza sativa L.) [8]; [21]) | Growth inhibition rate (%) Soybean [9, 21] | Growth inhibition rate (%) Wheat [10, 21] | Growth inhibition rate (%) Barnyardgrass [11, 21] | Growth inhibition rate (%) Green foxtail [12, 21] | Growth inhibition rate (%) Prickly sida [13, 21] | Growth inhibition rate (%) Redroot pigweed [14, 21] | Growth inhibition rate (%) Corn (corn (Zea mays L.) [15]; [21]) | Growth inhibition rate (%) Rice (rice (Oryza sativa L.) [16]; [21]) | Growth inhibition rate (%) Soybean [17, 21] | Growth inhibition rate (%) Crabgrass [18, 21] | Growth inhibition rate (%) Velvetleaf [19, 21] | Growth inhibition rate (%) Wheat [20, 21] | also measured
1 | CC(=O)Oc1c(C)nn(C)c(=O)c1-c1cc(Oc2nc3ccc(C(F)(F)F)nc3o2)ccc1C [Compound 2-121] | 100% | 98% | 100% | 20% | 20% | 98% | 98% | 90% | 0% | 78% | 100% | 100% | 0% | 0% | 20% | 0% | 0% | 98% | 0% | 0% | 
2 | CC(=O)Oc1c(C)nn(C)c(=O)c1-c1cc(Oc2cc(C(F)(F)F)c(C(F)(F)F)cn2)ccc1C [Compound 2-126] | 100% | 100% | 100% | 0% | 100% | 100% | 100% | 93% | 20% | 99% | 100% | 100% | 0% | 0% | 30% | 0% | 0% | 98% | 0% | 10% | 
3 | CC(=O)Oc1c(C)nn(C)c(=O)c1-c1cc(Oc2ccc3cc(Br)ccc3n2)ccc1C [Compound 2-127] | 100% | 30% | 100% | 0% | 0% | 90% | 78% | 70% | 0% | 100% | 93% | 78% | 0% | 0% | 0% | 0% | 0% | 10% | 0% | 0% | 
4 | CC(=O)Oc1c(C)nn(C)c(=O)c1-c1cc(Oc2ncc(Br)cc2Cl)ccc1C [Compound 2-135] | 93% | 90% | 95% | 0% | 93% | 90% | 95% | 80% | 0% | 88% | 90% | 90% | 0% | 0% | 0% | 0% | 10% | 75% | 0% | 0% | 
5 | CC(=O)Oc1c(C)nn(C)c(=O)c1-c1cc(Oc2nc3ccccc3o2)ccc1C [Compound 2-138] | 90% | 65% | 65% | 0% | 15% | 20% | 20% | 35% | 0% | 10% | 93% | 90% | 0% | 0% | 0% | 25% | 0% | 83% | 0% | 0% | 
6 | CC(=O)Oc1c(C)nn(C)c(=O)c1-c1cc(Oc2ccc3ccccc3n2)ccc1C [Compound 2-142] |  |  |  |  |  |  |  |  |  |  |  |  |  |  |  |  |  |  |  |  | Growth inhibition rate (%) Barnyardgrass [1, 22]: 100%; Growth inhibition rate (%) Crabgrass [2, 22]: 83%; Growth inhibition rate (%) Green foxtail [3, 22]: 90%; Growth inhibition rate (%) Redroot pigweed [4, 22]: 0%; Growth inhibition rate (%) Corn (corn (Zea mays L.) [5]; [22]): 20%; Growth inhibition rate (%) Wild oat [6, 22]: 50%; Growth inhibition rate (%) Italian ryegrass [7, 22]: 0%; Growth inhibition rate (%) Rice (rice (Oryza sativa L.) [8]; [22]): 80%; Growth inhibition rate (%) Soybean [9, 22]: 25%; Growth inhibition rate (%) Wheat [10, 22]: 50%; Growth inhibition rate (%) Barnyardgrass [11, 22]: 100%; Growth inhibition rate (%) Green foxtail [12, 22]: 93%; Growth inhibition rate (%) Prickly sida [13, 22]: 0%; Growth inhibition rate (%) Redroot pigweed [14, 22]: 0%; Growth inhibition rate (%) Corn (corn (Zea mays L.) [15]; [22]): 0%; Growth inhibition rate (%) Rice (rice (Oryza sativa L.) [16]; [22]): 90%; Growth inhibition rate (%) Soybean [17, 22]: 0%; Growth inhibition rate (%) Crabgrass [18, 22]: 98%; Growth inhibition rate (%) Velvetleaf [19, 22]: 0%; Growth inhibition rate (%) Wheat [20, 22]: 0%
7 | CC(=O)Oc1c(C)nn(C)c(=O)c1-c1cc(Oc2cnc3ccccc3c2)ccc1C [Compound 2-146] |  |  |  |  |  |  |  |  |  |  |  |  |  |  |  |  |  |  |  |  | Growth inhibition rate (%) Barnyardgrass [1, 22]: 99%; Growth inhibition rate (%) Crabgrass [2, 22]: 95%; Growth inhibition rate (%) Green foxtail [3, 22]: 95%; Growth inhibition rate (%) Redroot pigweed [4, 22]: 0%; Growth inhibition rate (%) Corn (corn (Zea mays L.) [5]; [22]): 85%; Growth inhibition rate (%) Wild oat [6, 22]: 80%; Growth inhibition rate (%) Italian ryegrass [7, 22]: 20%; Growth inhibition rate (%) Rice (rice (Oryza sativa L.) [8]; [22]): 75%; Growth inhibition rate (%) Soybean [9, 22]: 10%; Growth inhibition rate (%) Wheat [10, 22]: 50%; Growth inhibition rate (%) Barnyardgrass [11, 22]: 100%; Growth inhibition rate (%) Green foxtail [12, 22]: 100%; Growth inhibition rate (%) Prickly sida [13, 22]: 0%; Growth inhibition rate (%) Redroot pigweed [14, 22]: 0%; Growth inhibition rate (%) Corn (corn (Zea mays L.) [15]; [22]): 20%; Growth inhibition rate (%) Rice (rice (Oryza sativa L.) [16]; [22]): 85%; Growth inhibition rate (%) Soybean [17, 22]: 0%; Growth inhibition rate (%) Crabgrass [18, 22]: 100%; Growth inhibition rate (%) Velvetleaf [19, 22]: 50%; Growth inhibition rate (%) Wheat [20, 22]: 0%
8 | CCc1ccc(Oc2nc3ccc(Cl)cc3s2)cc1-c1c(O)c(C)nn(C)c1=O [Compound 2-150] | 100% | 60% | 98% | 0% | 30% | 50% | 98% | 30% | 0% | 75% | 100% | 98% | 75% | 100% | 0% | 0% | 0% | 90% | 0% | 0% | 
9 | Cc1ccc(Oc2nc3ccc(F)cc3s2)cc1-c1c(O)c(C)nn(C)c1=O [Compound 2-155] | 78% | 40% | 60% | 0% | 10% | 0% | 10% | 0% | 0% | 25% | 85% | 88% | 0% | 0% | 0% | 70% | 0% | 83% | 0% | 0% | 
